Measured values reported in ChEMBL document CHEMBL3507680, “University of Dundee, Gates Library screen for HepG2 cell viability”.

assay: Human HepG2 cell viability assay in 384 well format; assay type: toxicity, cell-based; set-up: dose 125 nL, time 70.5 hour; concentration not given beside the values; details: HepG2 cells, read-out: Inhibition

Point of comparison: `CCCn1nc2c(cc1=O)CN(CC(=O)N(C)c1nccs1)CC2`, cytotoxicity at 70.5 h -4.23%. Against it:
- O=C(O)c1ccn(-c2ccccc2NS(=O)(=O)c2cccc(Cl)c2F)n1 — lower, -7.81%
- Cc1nc(C)n(CC2CCCN2Cc2ncc(C(C)(C)C)o2)n1 (stereo unspecified) — higher, -4.1%
- Cc1ccc(-n2c(C)nnc2SCC(O)COCc2ccco2)cc1 (stereo unspecified) — lower, -5.42%
- N#Cc1ccc(CNCCc2cc(F)cc3c2OCOC3)cc1 — higher, 7.73%
- O=C(c1ccc[nH]1)N1CCc2nnc(Cn3cccc3)n2CC1 — lower, -7.68%
- COC(=O)C(C)N1CCCc2cc(OC)ccc2C1 (stereo unspecified) — lower, -4.67%
- c1cc(N2CCCC2c2cnccn2)ncn1 (stereo unspecified) — lower, -10%
- O=C(C1CN(CC2CCOCC2)CC12CCOCC2)N1CCOCC1 (stereo unspecified) — higher, -2.61%
- CC(C)CN1CCCC1c1ccc(C(=O)Nc2cc[nH]n2)s1 (stereo unspecified) — higher, -0.844%
- NCc1n[nH]c(=O)n1-c1ccccc1Oc1ccccc1 — higher, 9.56%
- Cc1cc(C2CCCN2C(=O)c2ccc(OCC(N)=O)cc2)no1 (stereo unspecified) — lower, -11.5%
- CNC(=O)Cn1cc(C#N)c(=O)c2cc(Br)ccc21 — higher, -3.12%
- CCn1ncc2c1CCCC2NCc1cccc2c1OCO2 (stereo unspecified) — higher, 15.8%
- CCc1cnc(CNC(=O)NCCc2ccc(O)cc2)s1 — higher, -1.61%
- Cc1sc2nc(SC(C)c3nc(C(C)(C)C)no3)nc(N)c2c1C (stereo unspecified) — higher, 21.9%
- COCCCC1CCN([C@@H]2c3ccccc3C3(CCNCC3)[C@H]2O)CC1 — higher, -1.24%
- Cc1cncc(C2CCCN(C(=O)c3cccn3C)C2)n1 (stereo unspecified) — lower, -5.17%
- Cc1cc(C)n(CC2CCCN2C(=O)Cc2c(C)nn(C)c2C)n1 (stereo unspecified) — higher, -0.624%
- Cc1c(C2CCCN(C(=O)c3ccncc3)C2)n2c(nc1=O)CCC2 (stereo unspecified) — lower, -9.8%
- CN1CCN(Cc2c[nH]cn2)CC12CCC(=O)N(CC1CC1)CC2 (stereo unspecified) — higher, 6.57%
- CC1CC(NS(=O)(=O)c2ccc(C(F)(F)F)nc2)C1 (stereo unspecified) — higher, 26.5%
- COCc1nn(C(C)C)c2c1CCN(Cc1ccc(C)o1)C2 — higher, -4.09%
- COc1cccc(Cn2c(=O)n(C)c(=O)c3sccc32)c1 — higher, 0.75%
- CN1C[C@@H](C(=O)NC2CCCC2)[C@@]2(COc3ccc(F)cc3C2=O)C1 — lower, -6.62%
- CC(NC(=O)Nc1ccc(-n2cncn2)cc1)C(=O)NC(C)(C)C (stereo unspecified) — lower, -29.6%
- CCS(=O)(=O)N1CCC(NCC2CNc3cc(C)nn3C2)CC1 (stereo unspecified) — higher, 19.2%
- Cc1cc(NCc2csc(-c3ccsc3)n2)no1 — higher, 0.878%
- Cc1ccsc1CN1CC[C@H]2OCC[C@@]2(C(=O)N2CCCO2)C1 — higher, 22.9%
- CSc1[nH]c(=O)c(C(=O)N2CCCC2c2cccs2)cc1C#N (stereo unspecified) — higher, -2.03%
- CC(C)NC(=O)N1CCCn2cnc(CN3CCCC3=O)c2C1 — higher, 27.9%
- NC(=O)CCNC(=O)Cc1cccc(I)c1 — higher, 16.7%
- O=S(=O)(NCC(O)c1ccoc1)c1ccc(Cl)s1 (stereo unspecified) — higher, 23%
- N#Cc1ccc(N2CCCN(CC(N)=O)CC2)cc1 — lower, -9.42%
- COc1cccc(NC(C(N)=O)c2ccc(Br)cc2)c1 (stereo unspecified) — lower, -10.7%
- CC1CN(c2ncnc3cccc(F)c23)CCO1 (stereo unspecified) — higher, 10.6%
- O=C1CCC2(CCCN(C(=O)Cc3cccnc3)C2)N1 (stereo unspecified) — lower, -6.68%
- CN1Cc2ccccc2CC2(CCN(C(=O)[C@H]3CCCO3)CC2)C1=O — lower, -4.74%
- CCOc1ccc(-c2ccnc(C)n2)cc1C(=O)O — lower, -4.51%
- O=C(NC1CC1)C1CCN(Cn2nc(-c3ccccc3)oc2=O)CC1 — higher, 25.1%
- Cc1ccc(N2Cc3nc(=O)[nH]n3C2=O)cc1 — higher, 6.49%
- COCCNc1ccccc1CNC(=O)NCc1nc(C)c(C)s1 — lower, -7.21%
- CCN(CC(=O)NC(C)C)C(=O)c1ccc(-c2ccsc2)nc1C — higher, -3.6%
- Cc1cc(C)cc(C(C(=O)O)N(C)CCCN2CCOCC2)c1 (stereo unspecified) — higher, 8.9%
- CCOc1ccc(N(CC(=O)c2ccccc2)C2=NCCCCC2)cc1 — lower, -9.89%
- CC(=O)N1CCC(c2n[nH]cc2-c2ccnc(N)c2)C1 (stereo unspecified) — higher, 15.7%
- CCc1n[nH]c(C2CN(Cc3nnc(C4CC4)o3)CCO2)n1 (stereo unspecified) — higher, -1.31%
- Cn1ccnc1CN1CCCN(C(=O)c2ccc(O)nc2)CC1 — lower, -4.72%
- COc1cc(N2C[C@H]3CN(CC(=O)N(C)C)C(=O)[C@H]3C2)ncn1 — higher, 28.2%
- COCCOc1ccc(CNCC2CNc3cc(C)nn3C2)cn1 (stereo unspecified) — lower, -4.87%
- Cc1cncc(C(=O)N2CCC3(CC2)NC(=O)CC3c2ccccc2)c1 (stereo unspecified) — higher, 17.7%
- CCn1ccnc1CN1CCN(CC(O)c2ccc(OC)cc2)CC1 (stereo unspecified) — higher, 12.3%
- CCc1cc(NCCS(=O)(=O)N(C)C)nc(N2CCOCC2)n1 — lower, -13.2%
- Cc1cc(C2CCCN(C(=O)c3ccc(Cl)o3)C2)n[nH]1 (stereo unspecified) — lower, -8.12%
- Cc1cnccc1CN1CC[C@@](C)(O)[C@H](Oc2ccccc2)C1 — higher, 22.4%
- O=C(CC(F)(F)F)N1C[C@H]2CCN[C@H]2C1 — higher, -2.74%
- COc1ccc(Cl)cc1C(C(=O)O)N1CCSCC1 (stereo unspecified) — higher, -3.65%
- CC(C)c1nnc2n1CC(CNCc1nc3ccccc3o1)CC2 (stereo unspecified) — higher, 2.4%
- O=C(c1nn[nH]c1Nc1ccc(Cl)cc1)N1CCCCCC1 — lower, -10.3%
- COc1c(CNCC(O)c2cccc(F)c2)c(C)nn1C (stereo unspecified) — lower, -9.63%
- Cc1cc(C)n(CC2CCCN2C(=O)c2ccc3[nH]nnc3c2)n1 (stereo unspecified) — higher, 0.633%
- Cc1nc(C)n(CCNS(=O)(=O)NCc2ccccc2)n1 — lower, -15.5%
- CCN(CCNC(=O)c1ccccc1OCCOC)C1CC1 — higher, 54.8%
- CCn1cc(CN2CCCN(C(=O)c3sccc3OC)CC2)cn1 — higher, 3.74%
- CCc1cnc(N2C[C@H]3CN(Cc4ccc(OC)cc4)C(=O)[C@H]3C2)nc1 — higher, -2.79%
- CCN(C)C(=O)c1ccc2c(c1)C(c1nc[nH]n1)CN2S(C)(=O)=O (stereo unspecified) — lower, -8.39%
- Cc1noc(C(C)C)c1C(=O)NCc1cccnc1 — lower, -16.6%
- CC(C)n1nc(CNc2ncccn2)c2c1CN(S(C)(=O)=O)CC2 — higher, 10.7%
- Cc1nc(C)c(C)c(N(C)CCCc2nccn2C)n1 — lower, -8.93%
- CC(C)c1n[nH]c(C(=O)Nc2ccncc2)c1Br — higher, 3.41%
- COC[C@]1(O)CCN(C2CCN(c3ccc(F)c(F)c3)CC2)CC1(C)C — higher, 22.6%
- CCO[C@H]1CC[C@H]2[C@H]1OCCN2CCOCc1ccccc1 — lower, -11.1%
- Cc1cccc(CNC(=O)Nc2ccc3c(c2)CCCC(=O)N3)c1 — higher, -1.4%
- CCC(=O)N1CCC(Cc2ccccc2-c2ccccc2)(C(N)=O)C1 (stereo unspecified) — lower, -20.3%
- O=C1[C@H]2CN(c3ncccn3)C[C@H]2CN1Cc1ccncc1 — higher, 3.36%
- Cc1nc(CN2CCO[C@@H]3CN(C(=O)NC(C)C)CC[C@@H]3C2)cs1 — lower, -6.02%
- Cc1cccc(CN2C[C@@H]3COC[C@]3(CNC(=O)N3CCCC3)C2)n1 — higher, 0.0201%
- Cc1ccc(CN2C[C@H](OCC3CCOCC3)[C@H]3COC[C@H]32)o1 — higher, 17%
- Cc1nc(C)c(CN2CCOC[C@H](Oc3cnccn3)C2)s1 — lower, -7.51%
- Cc1ccc(CN2CCCC23CCN(S(=O)(=O)c2ccccc2)C3)o1 (stereo unspecified) — lower, -7.71%
- CNS(=O)(=O)c1ccc(CNC(=O)N(CC(C)C)C(C)C)cc1 — lower, -96.5%
